Experimental data published in patent US20230340011A1 (Asteroid Therapeutics, priority 2022, published 2023).

Tests used:
SREBP-2 = SREBP-2 (Homo sapiens (Human), UniProt Q12772); assay: In vitro assay SREBP-2: PathHunter U2OS SREBP-2 Nuclear Translocation Cell Line, U18666A-stimulated; type: cell-based; conditions: PathHunter U2OS SREBP-2 nuclear translocation cells, U18666A 10 μM, overnight (16 hours)
LXRβ = LXRβ (Homo sapiens (Human), UniProt P55055); assay: In vitro assay LXRβ: PathHunter NHR CHO cells, LXRβ / Steroid Receptor Co-activator Peptide enzyme fragment complementation; type: cell-based; conditions: PathHunter NHR CHO cells, full-length human LXRβ and SRCP, chemiluminescent signal; read-out: LXRβ PPI
Chain of LXRβ (P55055 whole entry, the tested form may be a part): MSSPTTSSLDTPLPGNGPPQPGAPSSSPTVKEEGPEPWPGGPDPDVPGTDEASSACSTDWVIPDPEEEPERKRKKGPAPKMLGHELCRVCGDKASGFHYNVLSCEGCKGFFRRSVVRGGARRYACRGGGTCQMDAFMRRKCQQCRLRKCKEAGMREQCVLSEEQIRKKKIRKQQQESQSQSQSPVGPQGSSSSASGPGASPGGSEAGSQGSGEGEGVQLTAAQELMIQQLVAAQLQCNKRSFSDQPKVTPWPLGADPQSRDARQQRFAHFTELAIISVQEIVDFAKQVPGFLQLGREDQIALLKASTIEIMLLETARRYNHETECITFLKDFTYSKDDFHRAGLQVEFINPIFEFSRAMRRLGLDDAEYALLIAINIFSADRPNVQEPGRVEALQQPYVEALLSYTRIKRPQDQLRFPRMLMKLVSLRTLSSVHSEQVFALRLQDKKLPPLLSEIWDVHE
In short: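 Co-activator recruitment measured by chemiluminescence after signal generation. The CHO line carries full-length human LXRβ tagged with ProLink and an SRCP–enzyme acceptor fusion in the nucleus; cells sat overnight at 37° C before testing, in charcoal-dextran filtered serum medium with 1% final vehicle.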

COc1ncncc1N1CCN(C(=O)CC[C@@H](C)[C@H]2CC[C@H]3[C@@H]4CC=C5C[C@@H](O)CC[C@]5(C)[C@H]4CC[C@]23C)CC1 [Example 614, (4R)-4-[(1R,3aS,3bS,7S,9aR,9bS,11aR)-7-hydroxy-9a,11a-dimethyl-1H,2H,3H,3aH,3bH,4H,6H,7H,8H,9H,9aH,9bH,10H,11H,11aH-cyclopenta[a]phenanthren-1-yl]-1-[4-(4-methoxypyrimidin-5-yl)piperazin-1-yl]pentan-1-one]
IC50 (SREBP-2): < 250 nM
EC50 (LXRβ): > 10 µM

COc1cncnc1N1CCN(C(=O)CC[C@@H](C)[C@H]2CC[C@H]3[C@@H]4CC=C5C[C@@H](O)CC[C@]5(C)[C@H]4CC[C@]23C)C[C@@H]1C [Example 615, (R)-4-((3S,8S,9S,10R,13R,14S,17R)-3-hydroxy-10,13-dimethyl-2,3,4,7,8,9,10,11,12,13,14,15,16,17-tetradecahydro-1H-cyclopenta[a]phenanthren-17-yl)-1-((S)-4-(5-methoxypyrimidin-4-yl)-3-methylpiperazin-1-yl)pentan-1-one]
IC50 (SREBP-2): < 250 nM
EC50 (LXRβ): > 10 µM

COc1cncnc1N1CCN(C(=O)CC[C@@H](C)[C@H]2CC[C@H]3[C@@H]4CC=C5C[C@@H](O)CC[C@]5(C)[C@H]4CC[C@]23C)[C@@H](C)C1 [Example 616, (R)-4-((3S,8S,9S,10R,13R,14S,17R)-3-hydroxy-10,13-dimethyl-2,3,4,7,8,9,10,11,12,13,14,15,16,17-tetradecahydro-1H-cyclopenta[a]phenanthren-17-yl)-1-((S)-4-(5-methoxypyrimidin-4-yl)-2-methylpiperazin-1-yl)pentan-1-one]
IC50 (SREBP-2): < 250 nM
EC50 (LXRβ): > 10 µM

COc1ncc(OC)c(N2CCN(C(=O)CC[C@@H](C)[C@H]3CC[C@H]4[C@@H]5CC=C6C[C@@H](O)CC[C@]6(C)[C@H]5CC[C@]34C)CC2)n1 [Example 617, (R)-1-(4-(2,5-dimethoxypyrimidin-4-yl)piperazin-1-yl)-4-((3S,8S,9S,10R,13R,14S,17R)-3-hydroxy-10,13-dimethyl-2,3,4,7,8,9,10,11,12,13,14,15,16,17-tetradecahydro-1H-cyclopenta[a]phenanthren-17-yl)pentan-1-one]
IC50 (SREBP-2): < 250 nM
EC50 (LXRβ): > 10 µM

COc1ncnc(N2CCN(C(=O)CC[C@@H](C)[C@H]3CC[C@H]4[C@@H]5CC=C6C[C@@H](O)CC[C@]6(C)[C@H]5CC[C@]34C)CC2)c1OC [Example 618, (R)-1-(4-(5,6-dimethoxypyrimidin-4-yl)piperazin-1-yl)-4-((3S,8S,9S,10R,13R,14S,17R)-3-hydroxy-10,13-dimethyl-2,3,4,7,8,9,10,11,12,13,14,15,16,17-tetradecahydro-1H-cyclopenta[a]phenanthren-17-yl)pentan-1-one]
IC50 (SREBP-2): < 250 nM
EC50 (LXRβ): > 10 µM

C[C@H](CCC(=O)N1CCN(c2ncncc2C(F)(F)F)CC1)[C@H]1CC[C@H]2[C@@H]3CC=C4C[C@@H](O)CC[C@]4(C)[C@H]3CC[C@]12C [Example 619, (R)-4-((3S,8S,9S,10R,13R,14S,17R)-3-hydroxy-10,13-dimethyl-2,3,4,7,8,9,10,11,12,13,14,15,16,17-tetradecahydro-1H-cyclopenta[a]phenanthren-17-yl)-1-(4-(5-(trifluoromethyl)pyrimidin-4-yl)piperazin-1-yl)pentan-1-one]
IC50 (SREBP-2): < 250 nM
EC50 (LXRβ): > 10 µM

C[C@H](CCC(=O)N1CCN(c2ncccc2OC2CC2)CC1)[C@H]1CC[C@H]2[C@@H]3CC=C4C[C@@H](O)CC[C@]4(C)[C@H]3CC[C@]12C [Example 621, (R)-1-(4-(3-cyclopropoxypyridin-2-yl)piperazin-1-yl)-4-((3S,8S,9S,10R,13R,14S,17R)-3-hydroxy-10,13-dimethyl-2,3,4,7,8,9,10,11,12,13,14,15,16,17-tetradecahydro-1H-cyclopenta[a]phenanthren-17-yl)pentan-1-one]
IC50 (SREBP-2): < 250 nM
EC50 (LXRβ): > 10 µM
